Experimental data from US20240402196A1 (Exact Sciences Corporation, priority 2018, published 2024).
One block for each compound: values may come before it.

What was measured:
Hb = target: T1, Hb (Homo sapiens, UniProt P68871+P69905); experiment: Appendix B additive screen, % Hb Recovery
T1 construct: To assess the stability of hemoglobin in stool samples, samples were exposed to simulated shipping stress conditions; from tissue; host or cells: stool samples

hemoglobin (Hb) = target: T2, hemoglobin (Hb) (Homo sapiens, UniProt P68871+P69905); experiment: Appendix B: additives in Hb Collection Buffer, % Hb Recovery
T2 construct: To assess the stability of hemoglobin in stool samples, samples were exposed to simulated shipping stress conditions; from tissue; host or cells: stool samples

[1] = target: T3, hemoglobin in stool samples (Homo sapiens, UniProt P68871+P69905); experiment: 3-Day shipping simulation, hemoglobin % recovery by ELISA; set-up: from tissue; host or cells: stool samples; details: for Notes (Hb stability vs Hb Collection Buffer): additive concentrations as in the 8th table;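 for all read-outs here: stool samples put through shipping stress in a thermal cycler, hemoglobin quantified by ELISA before and after, stability given as post-stress % of the pre-stress level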
[2] = target: T3, hemoglobin in stool samples; experiment: Accelerated shipping simulation (35C 16 hour challenge), hemoglobin % recovery by ELISA; set-up: from tissue; host or cells: stool samples;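 note: stool hemoglobin measured by ELISA before and after thermal-cycler shipping stress, stability given as percent of pre-stress hemoglobin recovered afterwards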

T1 sequence (P69905 2-142 limits assumed): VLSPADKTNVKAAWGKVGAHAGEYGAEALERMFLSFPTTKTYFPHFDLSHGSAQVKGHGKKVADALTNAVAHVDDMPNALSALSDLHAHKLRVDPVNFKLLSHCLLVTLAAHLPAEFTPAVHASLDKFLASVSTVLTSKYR
T1 sequence (P68871 2-147 limits assumed): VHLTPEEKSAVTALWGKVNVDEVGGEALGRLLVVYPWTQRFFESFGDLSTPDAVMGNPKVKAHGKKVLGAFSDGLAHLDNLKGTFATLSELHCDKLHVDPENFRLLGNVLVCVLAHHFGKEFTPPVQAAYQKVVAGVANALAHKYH
T2 sequence (P69905 2-142 limits assumed): as the sequence (P69905 2-142 limits assumed) above
T2 sequence (P68871 2-147 limits assumed): as the sequence (P68871 2-147 limits assumed) above
T3 sequence (P69905 2-142 limits assumed): as the sequence (P69905 2-142 limits assumed) above
T3 sequence (P68871 2-147 limits assumed): as the sequence (P68871 2-147 limits assumed) above

Compound: CCn1cc[n+](C)c1.[Cl-] [1-ethyl-3-methylimidazolium chloride]
Results (Hb): No Improvement

Compound: CCCCCCn1cc[n+](C)c1.[Cl-] [1-hexyl-3-methylimidazolium chloride]
Results (Hb): No Improvement

Compound: Cl.Cn1sccc1=O [2-methyl-4-isothiazolin-3-one-hydrochloride]
Results (Hb): No Improvement

Results (Hb): No Improvement
Compound: O=[N+]([O-])C1(Br)COCOC1 [5-bromo-5-nitro-1,3-dioxane]

Compound: CC(=O)O.N [Ammonium Acetate]
Results (Hb): No Improvement

Compound: Cl.N [Ammonium Chloride]
Results (Hb): No Improvement

Compound: N.N.O=C(O)C(=O)O [Ammonium Oxalate]
Results (Hb): No Improvement

Compound: N.N.O=S(=O)(O)O [Ammonium Sulfate]
Results (Hb): No Improvement

Compound: [Ca+2].[Cl-].[Cl-] [Calcium Chloride (anhydrous)]
Results (Hb): Calcium cation shows

Compound: O.O.[Ca+2].[Cl-].[Cl-] [Calcium Chloride (dihydrate)]
Results (Hb): Calcium cation shows

Compound: [Ca+2].[Cl-].[Cl-] [Calcium Chloride, pH 6.5]
Results (hemoglobin (Hb); Additive Concentration 10 mM): No Improvement

Results ([1]; additive concentration 10 mM): No Improvement | Results ([1]; additive concentration 25 mM): No Improvement | Results ([1]; additive concentration 50 mM): No Improvement | Results ([1]; additive concentration 75 mM): No Improvement | Results ([1]; additive concentration 100 mM): No Improvement | Results ([2]; additive concentration 10 uM): No Improvement | Results ([2]; additive concentration 100 uM): No Improvement | Results ([2]; additive concentration 1 mM): No Improvement | Results ([2]; additive concentration 10 mM): No Improvement
Compound: O=C(NCO)N(CO)C1(CO)C(=O)NC(=O)N1CO (stereo not shown) [Diazolidinyl Urea]

Compound: OCCO [Ethylene Glycol]
Results (Hb): No Improvement

Results (hemoglobin (Hb); Additive Concentration 0.01%): No Improvement | Results (hemoglobin (Hb); Additive Concentration 0.01% + 10 mM): No improvement | Results (hemoglobin (Hb); Additive Concentration 0.10%): No Improvement | Results (hemoglobin (Hb); Additive Concentration 0.1% + 10 mM): No improvement | Results (hemoglobin (Hb); Additive Concentration 1%): No Improvement | Results (hemoglobin (Hb); Additive Concentration 1% + 10 mM): No improvement
Compound: O=C(O)[C@H]1OC(O)[C@H](O)[C@@H](O)[C@H]1O (stereo partly shown) [Galaturonic Acid]

Compound: NCC(=O)O [Glycine]
Results (Hb): No Improvement

Results (hemoglobin (Hb); Additive Concentration 0.00%): Improvement in % Hb | Results (hemoglobin (Hb); additive concentration 0.0003%): Improvement in % Hb
Compound: C=CC1=C(C)c2cc3[n-]c(cc4nc(cc5[n-]c(cc1n2)c(C)c5C=C)C(C)=C4CCC(=O)O)c(CCC(=O)O)c3C.[Cl-].[Fe+3] [Hemin, pH 6.5]

Results (Hb): No Improvement
Compound: [Cl][Fe][Cl] [Iron (2) Chloride]

Compound: [Cl-].[Li+] [Lithium Chloride]
Results (Hb): No Improvement

Compound: [Cl-].[Cl-].[Mg+2] [Magnesium Chloride]
Results (Hb): Magnesium Cation shows | Results ([1]; additive concentration 5 mM): Magnesium Cation shows | Results ([1]; additive concentration 10 mM): Magnesium Cation shows | Results ([1]; additive concentration 20 mM): Magnesium Cation shows | Results ([1]; additive concentration 30 mM): Magnesium Cation shows | Results ([1]; additive concentration 40 mM): Magnesium Cation shows | Results ([1]; additive concentration 50 mM): Magnesium Cation shows

Compound: CC(=O)[O-].[K+] [Potassium Acetate]
Results (Hb): No Improvement

Compound: [Cl-].[K+] [Potassium Chloride]
Results (Hb): No Improvement

Results (hemoglobin (Hb); Additive Concentration 0.1 uM): No Improvement | Results (hemoglobin (Hb); Additive Concentration 1 uM): No Improvement | Results (hemoglobin (Hb); additive concentration 10 uM): No Improvement
Compound: C=CC1=C(C)c2cc3[n-]c(cc4nc(cc5[n-]c(cc1n2)c(C)c5C=C)C(C)=C4CCC(=O)O)c(CCC(=O)O)c3C.[Cu+2] [Protoporphyrin IX Copper]

Results (hemoglobin (Hb); Additive Concentration 0.1 uM): No Improvement | Results (hemoglobin (Hb); Additive Concentration 1 uM): No Improvement | Results (hemoglobin (Hb); additive concentration 10 uM): No Improvement | Results (hemoglobin (Hb); additive concentration 25 uM): No Improvement | Results (hemoglobin (Hb); additive concentration 50 uM): No Improvement
Compound: C=CC1=C(C)c2cc3[n-]c(cc4nc(cc5[n-]c(cc1n2)c(C)c5CCC(=O)O)C(CCC(=O)O)=C4C)c(C)c3C=C.[Mg+2] [Protoporphyrin IX Magnesium]

Results (hemoglobin (Hb); Additive Concentration 0.05 uM): No Improvement | Results (hemoglobin (Hb); Additive Concentration 0.1 uM): No Improvement | Results (hemoglobin (Hb); Additive Concentration 1 uM): No Improvement | Results (hemoglobin (Hb); additive concentration 10 uM): No Improvement
Compound: C=CC1=C(C)c2cc3[n-]c(cc4nc(cc5[n-]c(cc1n2)c(C)c5C=C)C(C)=C4CCC(=O)O)c(CCC(=O)O)c3C.[Cl-].[Mn+3] [Protoporphyrin IX Mangansese]

Results (hemoglobin (Hb); Additive Concentration 0.1 uM): No Improvement | Results (hemoglobin (Hb); Additive Concentration 1 uM): No Improvement | Results (hemoglobin (Hb); additive concentration 10 uM): No Improvement
Compound: C=CC1=C(C)c2cc3[n-]c(cc4nc(cc5[n-]c(cc1n2)c(C)c5C=C)C(C)=C4CCC(=O)O)c(CCC(=O)O)c3C.[Cl-].[Cl-].[Sn+4] [Protoporphyrin IX Tin]

Results (Hb): No Improvement
Compound: C=CC1=C(C)c2cc3[n-]c(cc4nc(cc5[n-]c(cc1n2)c(C)c5C=C)C(C)=C4CCC(=O)O)c(CCC(=O)O)c3C.[Zn+2] [Protoprophyrin IX Zn]

Compound: O=c1c(O)c(-c2ccc(O)c(O)c2)oc2cc(O)cc(O)c12 [Quercetin]
Results ([1]; Additive Concentration 150 uM): No improvement | Results ([1]; Additive Concentration 300 uM): No improvement | Results ([1]; Additive Concentration 600 uM): No improvement | Results ([2]; additive concentration 0.6 uM): No Improvement | Results ([2]; additive concentration 6 uM): No Improvement | Results ([2]; additive concentration 60 uM): No Improvement

Compound: CC(=O)[O-].[Na+] [Sodium Acetate]
Results (Hb): No Improvement

Compound: O=C([O-])c1ccccc1.[Na+] [Sodium Benzoate]
Results (Hb): No Improvement | Results ([1]; Additive Concentration 0.03%): No improvement | Results ([1]; Additive Concentration 0.04%): No improvement | Results ([1]; Additive Concentration 0.05%): No improvement | Results ([1]; Additive Concentration 0.06%): No improvement | Results ([1]; Additive Concentration 0.10%): No improvement | Results ([1]; Additive Concentration 0.50%): No improvement | Results ([1]; Additive Concentration 1%): No improvement

Compound: O=C([O-])O.[Na+] [Sodium Bicarbonate]
Results (Hb): No Improvement | Results ([2]; additive concentration 0.0000895 mM): No Improvement | Results ([2]; additive concentration 0.000895 mM): No Improvement | Results ([2]; additive concentration 0.00895 mM): No Improvement | Results ([2]; additive concentration 0.0895 mM): No Improvement | Results ([2]; additive concentration 0.895 mM): No Improvement | Results ([2]; additive concentration 8.95 mM): No Improvement

Compound: O=S([O-])O.[Na+] [Sodium Bisulfite]
Results (Hb): No Improvement

Compound: [Br-].[Na+] [Sodium Bromide]
Results (Hb): No Improvement

Compound: O=C([O-])[O-].[Na+].[Na+] [Sodium Carbonate]
Results (Hb): No Improvement

Compound: [O-][Cl+3]([O-])([O-])O [Sodium Perchlorate]
Results (Hb): No Improvement

Compound: O=P(O)(O)O [Sodium Phosphate]
Results (Hb): No Improvement

Notes (Hb stability vs Hb Collection Buffer) [1]: Improved Hb | Results ([2]; additive concentration […]): Improvement
Compound: OC[C@H]1O[C@@](CO)(O[C@H]2O[C@H](CO)[C@@H](O)[C@H](O)[C@H]2O)[C@@H](O)[C@@H]1O [Sucrose]

Notes (Hb stability vs Hb Collection Buffer) [1]: Improved Hb | Results ([2]; additive concentration 0.0174 mM): No Improvement | Results ([2]; additive concentration 0.174 mM): No Improvement | Results ([2]; additive concentration 1.74 mM): No Improvement | Results ([2]; additive concentration 10 mM): No Improvement | Results ([2]; additive concentration 16.76 mM): No Improvement | Results ([2]; additive concentration 0.3M): Improvement
Compound: OC[C@H]1O[C@H](O[C@H]2O[C@H](CO)[C@@H](O)[C@H](O)[C@H]2O)[C@H](O)[C@@H](O)[C@@H]1O [Trehalose]

Compound: C[N+](C)(C)[O-] [Trimethylamine N-oxide (TMANO)]
Results (Hb): No Improvement | Results ([1]; additive concentration 1.1M): Slight Improvement | Results ([1]; additive concentration 2.15M): Slight Improvement | Results ([1]; additive concentration 3M): No Improvement | Results ([1]; additive concentration 3.5M): No Improvement | Results ([1]; additive concentration 4M): No Improvement | Results ([2]; additive concentration 500 uM): No Improvement | Results ([2]; additive concentration 5 mM): No Improvement | Results ([2]; additive concentration 50 mM): No Improvement | Results ([2]; additive concentration 87 mM): No Improvement

Results (hemoglobin (Hb); Additive Concentration 0%): No Improvement | Results (hemoglobin (Hb); Additive Concentration 0.50%): No Improvement | Results (hemoglobin (Hb); Additive Concentration 1%): No Improvement | Results (hemoglobin (Hb); Additive Concentration 5%): No Improvement | Results (hemoglobin (Hb); Additive Concentration 10%): No Improvement
Compound: BSA, pH 6.5

Compound: Calcium Gluconate
Results (Hb): No Improvement

Compound: Magnesium Gluconate
Results (Hb): No Improvement | Results ([1]; additive concentration 5 mM): Magnesium Cation shows | Results ([1]; additive concentration 10 mM): Magnesium Cation shows | Results ([1]; additive concentration 20 mM): Magnesium Cation shows | Results ([1]; additive concentration 30 mM): Magnesium Cation shows | Results ([1]; additive concentration 40 mM): Magnesium Cation shows | Results ([1]; additive concentration 50 mM): Magnesium Cation shows | Results ([2]; additive concentration 1.2 uM): No Improvement | Results ([2]; additive concentration 12 uM): No Improvement | Results ([2]; additive concentration 120 uM): No Improvement

Compound: Sodium hydroxylmethyl glycinate
Results (Hb): No Improvement

Results (Hb): No Improvement
Compound: phosphatidylcholine
